Laboratory results: US20220226508A1, “METHODS AND COMPOSITIONS FOR TREATING EPILEPSY” (THE REGENTS OF THE UNIVERSITY OF CALIFORNIA, priority 2019, published 2022)
“Also recorded” adds a separate entry of the source. Like-named read-outs stand apart in the source and are kept apart here.

Experiments:
human 5-HT2AR [1] = molecular target: T1, human 5-HT2AR (Homo sapiens, UniProt P28223); assay: biochemical; type: binding
T1 construct: expressed in transfected cells
Method: (§1) Receptor Binding Assays. In vitro binding assay and Ki data were performed by the US National Institute of Mental Health Psychoactive Drug Screening Program (NIMH PDSP). Drugs were screened against recombinant, stably expressed human 5-HT2AR, 5-HT2BR, 5-HT2CR and H1. For specific binding assays please refer to detailed procedures at https://pdspdb.unc.edu/pdspWeb/ (Besnard, J. et al., Nature, 492, 215-220, 2012).

human 5-HT2BR [2] = molecular target: T2, human 5-HT2BR (Homo sapiens, UniProt P41595); assay: biochemical; type: binding; details: for specificity / selectivity for 5-HT2BR over other 5-HT2R subtypes: radioligand binding
T2 construct: expressed in transfected cells
Method: as §1

human 5-HT2CR [3] = molecular target: T3, human 5-HT2CR (Homo sapiens, UniProt P28335); assay: Radioligand binding assay (NIMH PDSP), 5-HT2CR
T3 construct: expressed in transfected cells
T3 sequence (P28335 33-458): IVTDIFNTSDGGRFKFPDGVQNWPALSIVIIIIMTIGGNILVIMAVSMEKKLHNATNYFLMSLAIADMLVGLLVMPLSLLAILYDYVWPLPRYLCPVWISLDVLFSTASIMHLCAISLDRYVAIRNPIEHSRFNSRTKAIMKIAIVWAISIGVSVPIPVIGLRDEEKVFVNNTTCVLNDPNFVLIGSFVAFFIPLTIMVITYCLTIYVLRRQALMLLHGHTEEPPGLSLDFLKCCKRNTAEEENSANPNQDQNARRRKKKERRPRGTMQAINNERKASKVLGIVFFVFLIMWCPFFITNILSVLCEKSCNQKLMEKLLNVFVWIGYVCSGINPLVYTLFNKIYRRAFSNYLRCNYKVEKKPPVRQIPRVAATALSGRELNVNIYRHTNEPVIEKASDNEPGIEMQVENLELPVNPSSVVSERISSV
Method: as §1

scn1lab mutant zebrafish [4] = assay: Locomotion assay of high-velocity seizure-like swim behavior; type: in vivo, zebrafish (Danio rerio); details: for suppression of seizure-like swim behavior (change in mean velocity): independently resynthesized compounds retested at 10, 50, 100 and 250 μM; for suppression of seizure-like swim behavior (change in mean swim velocity): initial library screen at 100 μM and 250 μM, 5 dpf larvae, threshold reduction ≥40%
From the text: Zebrafish maintenance. Zebrafish were raised under standard laboratory conditions in accordance with requirements outlined in the Guide for the Care and Use of Animals (ebrary Inc., 2011) and experiments were approved by the Institutional Animal Care and Use Committee (protocol #AN108659-03). Embryos were obtained by natural spawning of scn1lab (didy^s552) heterozygous animals that had been outcrossed to TL strain. Homozygous scn1lab mutants (n=2500) have dispersed melanosomes and appear visibly darker by 3 dpf compared to WT larvae.
(§2) Seizure monitoring. At 5 dpf individual zebrafish larvae were placed into a single well of a clear flat-bottomed 96-well microplate containing embryo media. Larvae were selected randomly as sex determination is not possible at this stage of development. All drug screening experiments were conducted in an unbiased manner by investigators blinded to the test compounds and all files coded for post hoc analysis. Microplates were placed inside the DanioVision and acclimated for 20 min at room temperature. Locomotion plots were obtained for each well at a recording epoch of 10 min using EthoVision XT software (DanioVision, Noldus Information Technology). Seizure scoring was performed using the following three-stage scale established for pentylenetetrazole-induced seizures: Stage 0, no or very little swim activity; Stage I, increased, brief bouts of swim activity; Stage II, rapid “whirlpool-like” circling swim behavior; and Stage III, paroxysmal whole-body clonus-like convulsions, and a brief loss of posture. WT fish are typically scored at Stage 0 or I. Plots were analyzed for distance travelled (in millimeters) and mean velocity (in millimeters per second). After 90 mins of drug exposure larvae were examined for toxic side-effects. Compounds that decreased or stopped the larva heartbeat, or reduced or eliminated the escape response when touched, were considered toxic.
Statistics. Data are presented as the mean±standard error of the mean (SEM), unless otherwise stated. For behavior analysis, the threshold for a change in mean swim velocity ≥40% (>1.5×SD of 250 control treated scn1lab) is considered significant. For comparison between more than two groups one-way ANOVA analysis was used. […] Differences considered statistically significant are indicated with asterisks (*P<0.05; **P<0.01).

scn1lab mutant zebrafish [5] = assay: Local field potential (LFP) electrophysiology of electrographic seizure events; type: in vivo, zebrafish (Danio rerio); details: 10 min LFP recording, 5 dpf larvae
Method: For electrophysiology studies, zebrafish larvae were anesthetized with cold and immobilized in 1.2% agarose; local field potential (LFP) recordings were obtained from forebrain or optic tectum structures using a single-electrode approach, as previously described (Baraban, S. C. et al., Neuroscience, 131, 759-768, 2005). Agarose-embedded LFP recording sessions of 10 min were obtained at 1 kHz. Epileptiform events were identified post hoc and defined as multi-spike or poly-spike upward or downward membrane deflections greater than 3× baseline noise level and 150-250 ms in duration (interictal-like) or greater than 5× baseline noise, multi-spike and >500 ms in duration (ictal-like); both events were counted using threshold detection settings in Clampfit (Molecular Devices; Sunnyvale, Calif.). During electrophysiology experiments larvae were continuously monitored for blood flow and heart rate using an Axiocam digital camera at video frame rate.
Monitoring electrographic brain activity to confirm seizure suppression is an essential assay to eliminate false positives from behavioral testing (Griffin, A. et al., Frontiers in Pharmacology, 9, 2018). By placing a microelectrode into a visually identified brain region of an agar-immobilized zebrafish larval, stable local field potential (LFP) recordings can be monitored for several hours (Baraban, S. C. et al., Nat Commun, 4, 2410, 2013). At 5 dpf LFP recordings of scn1Lab zebrafish larvae show an average of 250 abnormal electrographic seizure events during a 10 min recording epoch.

human H1 receptor = human H1 receptor (Homo sapiens, UniProt P35367); assay: Radioligand binding assay (NIMH PDSP), H1; set-up: expressed in transfected cells
Method: as §1

scn1lab mutant zebrafish [6] = assay: Toxicity in larvae after 90 min drug exposure (heartbeat, escape response); type: in vivo, zebrafish (Danio rerio)
Method: as §2

human 5-HT2R = assay: Radioligand binding assays (NIMH PDSP), 5-HT2R subtypes together; details: 5-HT2AR, 5-HT2BR, 5-HT2CR
Method: Receptor Binding Assays. In vitro binding assay and Ki data were performed by the US National Institute of Mental Health Psychoactive Drug Screening Program (NIMH PDSP). Drugs were screened against recombinant, stably expressed human 5-HT2AR, 5-HT2BR, 5-HT2CR and H1.

[7] = Solubility in the screening medium; type: physicochemical; details: 250 μM
Method: 10 mM compound stock solutions were made in DMSO and then diluted in embryo medium for assays.

human 5-HT2BR [8] = molecular target: T2, human 5-HT2BR; details: known drugs and commercial compounds; read-out: binding affinity (Ki) 5-HT2B / 5-HT2BR; cited from earlier work
human 5-HT2CR [9] = molecular target: T3, human 5-HT2CR; details: known drugs and commercial compounds; read-out: binding affinity (Ki) 5-HT2C / 5-HT2CR; cited from earlier work
human 5-HT2AR [10] = molecular target: T1, human 5-HT2AR; details: known drugs and commercial compounds; read-out: binding affinity (Ki) 5-HT2A / 5-HT2AR; cited from earlier work
[11] = read-out: binding affinity (Ki) 5-HT2AR
[12] = clemizole analogs, recombinant human receptor, read-out: binding affinity (Ki) 5-HT2BR
[13] = read-out: binding affinity (Ki) 5-HT2CR
[14] = 30 and 90 min exposure, threshold ≥40%
[15] = clemizole analogs, recombinant human receptor, read-out: binding affinity (Ki) H1
[16] = clemizole analogs, recombinant human receptor, read-out: binding affinity (Ki) 5-HT2CR
[17] = read-out: binding affinity (Ki) 5-HT2BR
[18] = read-out: binding affinity (Ki) H1

T1 sequence (P28223 whole entry): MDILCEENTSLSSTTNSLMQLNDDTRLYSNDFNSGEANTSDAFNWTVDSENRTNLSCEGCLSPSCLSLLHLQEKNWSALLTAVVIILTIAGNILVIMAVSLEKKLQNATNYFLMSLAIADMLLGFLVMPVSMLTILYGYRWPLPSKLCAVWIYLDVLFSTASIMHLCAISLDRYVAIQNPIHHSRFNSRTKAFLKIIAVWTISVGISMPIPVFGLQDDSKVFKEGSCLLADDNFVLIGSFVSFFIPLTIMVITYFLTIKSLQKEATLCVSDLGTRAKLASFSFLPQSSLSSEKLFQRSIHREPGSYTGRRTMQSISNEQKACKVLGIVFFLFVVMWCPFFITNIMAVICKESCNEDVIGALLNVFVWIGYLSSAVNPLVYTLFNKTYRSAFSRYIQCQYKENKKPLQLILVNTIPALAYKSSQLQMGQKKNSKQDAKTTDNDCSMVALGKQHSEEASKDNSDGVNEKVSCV
Chain of human H1 receptor (P35367 whole entry): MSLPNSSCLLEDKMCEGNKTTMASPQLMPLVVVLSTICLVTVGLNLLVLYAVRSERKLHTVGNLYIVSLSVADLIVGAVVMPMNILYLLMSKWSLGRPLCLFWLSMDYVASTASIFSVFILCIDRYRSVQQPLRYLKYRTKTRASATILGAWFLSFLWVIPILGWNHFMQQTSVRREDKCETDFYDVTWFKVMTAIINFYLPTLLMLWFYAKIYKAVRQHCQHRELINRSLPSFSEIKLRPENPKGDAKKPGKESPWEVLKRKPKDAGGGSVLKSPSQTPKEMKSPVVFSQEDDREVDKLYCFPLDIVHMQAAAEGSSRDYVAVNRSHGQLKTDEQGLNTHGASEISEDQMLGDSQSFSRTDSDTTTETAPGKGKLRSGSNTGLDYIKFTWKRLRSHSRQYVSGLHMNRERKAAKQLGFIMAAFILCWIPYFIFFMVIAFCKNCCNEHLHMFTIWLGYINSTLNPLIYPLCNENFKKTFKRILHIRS
T2 sequence (P41595 whole entry): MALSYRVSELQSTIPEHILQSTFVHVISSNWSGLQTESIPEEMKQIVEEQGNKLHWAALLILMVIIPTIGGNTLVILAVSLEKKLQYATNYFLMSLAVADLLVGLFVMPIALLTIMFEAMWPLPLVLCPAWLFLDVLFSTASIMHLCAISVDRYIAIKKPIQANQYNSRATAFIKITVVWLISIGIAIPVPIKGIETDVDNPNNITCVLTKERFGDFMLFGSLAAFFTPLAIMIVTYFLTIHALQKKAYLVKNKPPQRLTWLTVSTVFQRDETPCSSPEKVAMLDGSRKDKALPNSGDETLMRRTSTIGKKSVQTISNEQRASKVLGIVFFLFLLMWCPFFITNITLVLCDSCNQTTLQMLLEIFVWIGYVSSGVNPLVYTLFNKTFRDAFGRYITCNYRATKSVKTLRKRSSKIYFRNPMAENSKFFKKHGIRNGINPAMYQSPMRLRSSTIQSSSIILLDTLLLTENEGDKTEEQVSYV

## FC(F)(F)c1ccc(Cn2c(CN3CCCC3)nc3ccccc32)cc1 [Compound 6, 2-[(Pyrrolidin-1-yl)methyl]-1-{[4-(trifluoromethyl)phenyl]methyl}-1H-benzimidazole]
Human 5-HT2AR [1]; [11]
  Ki: > 10000 nM
Human 5-HT2BR [2]; clemizole analogs, recombinant human receptor, listed as Comp. 6, read-out: binding affinity (Ki) 5-HT2BR
  Ki: 258 nM
Human 5-HT2BR [2]; [12]
  Ki: 285 nM
Human 5-HT2BR [2]
  specificity / selectivity for 5-HT2BR over other 5-HT2R subtypes: specificity for 5-HT2BR over other 5-HT2R subtypes; also recorded: significant preference for 5-HT2BR
Human 5-HT2CR [3]; [13]
  Ki: > 10000 nM
scn1lab mutant zebrafish [4]; [14]
  suppression of seizure-like swim behavior (change in mean velocity): reduced the high-velocity seizure-like swim behavior
scn1lab mutant zebrafish [4]
  suppression of seizure-like swim behavior (change in mean swim velocity): effective in suppressing
scn1lab mutant zebrafish [5]; 100 μM
  frequency of electrographic seizure (epileptiform) events: significant changes in the frequency of events; also recorded: significant suppression of electrographic seizure activity
Human H1 receptor; [15]
  Ki: 16 nM

## Clc1ccc(Cn2ccnc2CN2CCCC2)cc1 [Compound 9, 1-[(4-Chlorophenyl)methyl]-2-[(pyrrolidin-1-yl)methyl]-1H-imidazole]
Human 5-HT2CR [3]; [16]
  Ki: 447 nM
scn1lab mutant zebrafish [4]
  suppression of seizure-like swim behavior (change in mean swim velocity): effective in suppressing
scn1lab mutant zebrafish [6]; 250 μM
  toxicity after 90-min exposure: toxic
Human H1 receptor; [15]
  Ki: 29 nM

## N#Cc1cccc(Cn2c(CN3CCCC3)nc3ccccc32)c1 [Compound 10]
Human 5-HT2AR [1]; [11]
  Ki: > 10000 nM
Human 5-HT2BR [2]; [17]
  Ki: > 10000 nM
Human 5-HT2CR [3]; [13]
  Ki: > 10000 nM
Human 5-HT2R
  binding to any human 5-HT2R: no significant binding
Human H1 receptor; [18]
  Ki: 351 nM

## c1ccc2c(c1)nc(CN1CCCC1)n2CC1CCOCC1 [Compound 15]
Human 5-HT2AR [1]
  Ki: > 10000 nM
Human 5-HT2BR [2]
  Ki: > 10000 nM
Human 5-HT2CR [3]
  Ki: > 10000 nM
Human 5-HT2R
  binding to any human 5-HT2R: no significant binding
Human H1 receptor
  Ki: 865 nM

## FC1(F)CCC(Cn2c(CN3CCCC3)nc3ccccc32)CC1 [Compound 17]
Human 5-HT2AR [1]; [11]
  Ki: > 10000 nM
Human 5-HT2BR [2]; [17]
  Ki: > 10000 nM
Human 5-HT2CR [3]; [13]
  Ki: > 10000 nM
Human 5-HT2R
  binding to any human 5-HT2R: no significant binding
Human H1 receptor; [18]
  Ki: 137 nM

## c1ccc2c(c1)nc(CN1CCCC1)n2CC1CCCC1 [Compound 20, 1-(Cyclopentylmethyl)-2-[(pyrrolidin-1-yl)methyl]-1H-benzimidazole]
Human 5-HT2AR [1]; [11]
  Ki: > 10000 nM
Human 5-HT2BR [2]; [12]
  Ki: 772 nM
Human 5-HT2BR [2]
  specificity / selectivity for 5-HT2BR over other 5-HT2R subtypes: specificity for 5-HT2BR over other 5-HT2R subtypes; also recorded: significant preference for 5-HT2BR
Human 5-HT2CR [3]; [13]
  Ki: > 10000 nM
scn1lab mutant zebrafish [4]; [14]
  suppression of seizure-like swim behavior (change in mean velocity): reduced the high-velocity seizure-like swim behavior
scn1lab mutant zebrafish [4]
  suppression of seizure-like swim behavior (change in mean swim velocity): effective in suppressing
scn1lab mutant zebrafish [5]; 100 μM
  frequency of electrographic seizure (epileptiform) events: significant changes in the frequency of events; also recorded: significant suppression of electrographic seizure activity
Human H1 receptor; [15]
  Ki: 161 nM

## c1cn(CC2CCCCC2)c(CN2CCCC2)n1 [Compound 21]
Human 5-HT2AR [1]; [11]
  Ki: > 10000 nM
Human 5-HT2BR [2]; [17]
  Ki: > 10000 nM
Human 5-HT2CR [3]; [13]
  Ki: > 10000 nM
Human 5-HT2R
  binding to any human 5-HT2R: no significant binding
Human H1 receptor; [18]
  Ki: > 10000 nM

## Clc1ccc(Cn2c(CN3CCOCC3)nc3ccccc32)cc1 [Compound 23]
Human 5-HT2AR [1]; [11]
  Ki: > 10000 nM
Human 5-HT2BR [2]
  specificity / selectivity for 5-HT2BR over other 5-HT2R subtypes: selectivity for 5-HT2BR
Human 5-HT2BR [2]; [17]
  Ki: 515 nM
Human 5-HT2CR [3]; [13]
  Ki: > 10000 nM
scn1lab mutant zebrafish [6]; initial library screen, concentration not given
  toxicity after 90-min exposure: toxic
Human H1 receptor; [18]
  Ki: 34 nM

## CC(C)(C)OC(=O)N1CCN(Cc2nc3ccccc3n2Cc2ccc(Cl)cc2)CC1 [Compound 25, tert-Butyl 4-({1-[(4-chlorophenyl)methyl]-1H-benzimidazol-2-yl}methyl)piperazine-1-carboxylate]
Human 5-HT2AR [1]; clemizole analogs, recombinant human receptor, read-out: binding affinity (Ki) 5-HT2AR
  Ki: 2380 nM
Human 5-HT2BR [2]; [12]
  Ki: 482 nM
Human 5-HT2CR [3]; [16]
  Ki: 2260 nM
[7]
  going into solution: failed to go into solution
Human H1 receptor; [15]
  Ki: 76 nM

## CC(C)C[C@H]1C(=O)N2CCC[C@H]2[C@]2(O)O[C@](NC(=O)[C@@H]3C=C4c5cccc6[nH]c(Br)c(c56)C[C@H]4N(C)C3)(C(C)C)C(=O)N12 [bromocriptine]
scn1lab mutant zebrafish [6]; concentrations higher than 10 μM
  toxicity after 90-min exposure: toxicity

## CC[C@@H](CO)NC(=O)[C@@H]1C=C2c3cccc4[nH]cc(c34)C[C@H]2N(C)C1 [methylergonovine, reference compound]
scn1lab mutant zebrafish [4]; commercial 5-HT2BR/dopamine agonists, three concentrations, 30 and 90 min exposure, threshold ≥40%
  effect on seizure-like swim behavior (change in mean velocity): suppressed convulsive swim behaviors in a concentration-dependent manner
scn1lab mutant zebrafish [5]; 250 μM
  frequency of electrographic seizure (epileptiform) events: significant changes in the frequency of events; also recorded: significantly suppressed the frequency of electrographic seizure events
Human 5-HT2BR [8]
  Ki: 2.2 nM
Human 5-HT2CR [9]
  Ki: 4.6 nM

## c1cnc(N2CCN(Cc3ccc4c(c3)OCO4)CC2)nc1 [piribedil]
scn1lab mutant zebrafish [6]; 100 μM
  toxicity after 90-min exposure: toxicity
scn1lab mutant zebrafish [6]; 250 μM
  toxicity after 90-min exposure: toxicity
Human 5-HT2AR [10]
  Ki: > 10000 nM
Human 5-HT2CR [9]
  Ki: > 10000 nM
